Measured values: patent US20110173718A1, “HERBICIDE TOLERANT PLANTS” (SYNGENTA CROP PROTECTION, INC., priority 2008, published 2011)

Test system: weeds
Experiment: Glasshouse weed control by HST/HPPD (mesotrione) mixtures, pre-emergence
Assay type: in vivo
Conditions: for colby: Colby synergy score; for % Damage at 14 DAA, 1 g ai ha^−1 mesotrione / % Damage at 14 DAA, no-mesotrione: N = 3
Procedure: Weed seeds are planted out in trays containing suitable soil (for example 50% peat, 50% John Innes soil no 3) and grown in the glass house conditions under 24-27° C. day; 18-21° C. night and approximately a 14 h (or longer in UK summer) photoperiod. Humidity is ˜65% and light levels up to 2000 μmol/m^2 at bench level. Trays are sprayed with test chemicals dissolved in water with 0.2-0.25% X-77 surfactant and sprayed from a boom on a suitable track sprayer moving at about 2 mph in a suitable track sprayer (for example a DeVries spray chamber with the nozzle about 2 inches from the plant tops). Spray volume is suitably 500-1000 l/ha. Sprays are carried out both pre-emergence and over small plants at about 7-12 d post-emergence
Plants are assessed 14 DAT and herbicidal damage is scored on a scale from 0 to 100%. The HST inhibitor compound 2.30 (designated compound A in table 16 and 17), haloxydine (compound 1.1) and compound 2.13 (designated compound AE in tables 16 and 17) are sprayed at rates between 0 and 500 g/ha.

[1] = ALOMY, 16 g/ha + mesotrione 1 g ai/ha
[2] = ALOMY, 31 g/ha + mesotrione 1 g ai/ha
[3] = ALOMY, 63 g/ha + mesotrione 1 g ai/ha
[4] = ALOMY, 125 g/ha + mesotrione 1 g ai/ha
[5] = ALOMY, 250 g/ha + mesotrione 1 g ai/ha
[6] = ALOMY, 500 g/ha + mesotrione 1 g ai/ha
[7] = AMARE, 16 g/ha + mesotrione 1 g ai/ha
[8] = AMARE, 31 g/ha + mesotrione 1 g ai/ha
[9] = AMARE, 63 g/ha + mesotrione 1 g ai/ha
[10] = AMARE, 125 g/ha + mesotrione 1 g ai/ha
[11] = AMARE, 250 g/ha + mesotrione 1 g ai/ha
[12] = AMARE, 500 g/ha + mesotrione 1 g ai/ha
[13] = ECHCG, 16 g/ha + mesotrione 1 g ai/ha
[14] = ECHCG, 31 g/ha + mesotrione 1 g ai/ha
[15] = ECHCG, 63 g/ha + mesotrione 1 g ai/ha
[16] = ECHCG, 125 g/ha + mesotrione 1 g ai/ha
[17] = ECHCG, 250 g/ha + mesotrione 1 g ai/ha
[18] = ECHCG, 500 g/ha + mesotrione 1 g ai/ha
[19] = IPOHE, 16 g/ha + mesotrione 1 g ai/ha
[20] = IPOHE, 31 g/ha + mesotrione 1 g ai/ha
[21] = IPOHE, 63 g/ha + mesotrione 1 g ai/ha
[22] = IPOHE, 125 g/ha + mesotrione 1 g ai/ha
[23] = IPOHE, 250 g/ha + mesotrione 1 g ai/ha
[24] = IPOHE, 500 g/ha + mesotrione 1 g ai/ha
[25] = SETFA, 16 g/ha + mesotrione 1 g ai/ha
[26] = SETFA, 31 g/ha + mesotrione 1 g ai/ha
[27] = SETFA, 63 g/ha + mesotrione 1 g ai/ha
[28] = SETFA, 125 g/ha + mesotrione 1 g ai/ha
[29] = SETFA, 250 g/ha + mesotrione 1 g ai/ha
[30] = SETFA, 500 g/ha + mesotrione 1 g ai/ha
[31] = SOLNI, 16 g/ha + mesotrione 1 g ai/ha
[32] = SOLNI, 31 g/ha + mesotrione 1 g ai/ha
[33] = SOLNI, 63 g/ha + mesotrione 1 g ai/ha
[34] = SOLNI, 125 g/ha + mesotrione 1 g ai/ha
[35] = SOLNI, 250 g/ha + mesotrione 1 g ai/ha
[36] = SOLNI, 500 g/ha + mesotrione 1 g ai/ha

O=c1c(Cl)c(F)[nH]c(F)c1Cl [Haloxidine]
colby [1]: 5% | % Damage at 14 DAA, 1 g ai ha^−1 mesotrione [1]: 8% | % Damage at 14 DAA, no-mesotrione (ALOMY, 16 g/ha): 3% | colby [2]: 12% | % Damage at 14 DAA, 1 g ai ha^−1 mesotrione [2]: 25% | % Damage at 14 DAA, no-mesotrione (ALOMY, 31 g/ha): 13% | colby [3]: 8% | % Damage at 14 DAA, 1 g ai ha^−1 mesotrione [3]: 50% | % Damage at 14 DAA, no-mesotrione (ALOMY, 63 g/ha): 42% | colby [4]: 10% | % Damage at 14 DAA, 1 g ai ha^−1 mesotrione [4]: 77% | % Damage at 14 DAA, no-mesotrione (ALOMY, 125 g/ha): 67% | colby [5]: −3% | % Damage at 14 DAA, 1 g ai ha^−1 mesotrione [5]: 78% | % Damage at 14 DAA, no-mesotrione (ALOMY, 250 g/ha): 82% | colby [6]: −2% | % Damage at 14 DAA, 1 g ai ha^−1 mesotrione [6]: 83% | % Damage at 14 DAA, no-mesotrione (ALOMY, 500 g/ha): 85% | colby [7]: 2% | % Damage at 14 DAA, 1 g ai ha^−1 mesotrione [7]: 42% | % Damage at 14 DAA, no-mesotrione (AMARE, 16 g/ha): 38% | colby [8]: 1% | % Damage at 14 DAA, 1 g ai ha^−1 mesotrione [8]: 75% | % Damage at 14 DAA, no-mesotrione (AMARE, 31 g/ha): 73% | colby [9]: 5% | % Damage at 14 DAA, 1 g ai ha^−1 mesotrione [9]: 93% | % Damage at 14 DAA, no-mesotrione (AMARE, 63 g/ha): 88% | colby [10]: 0% | % Damage at 14 DAA, 1 g ai ha^−1 mesotrione [10]: 100% | % Damage at 14 DAA, no-mesotrione (AMARE, 125 g/ha): 100% | colby [11]: 0% | % Damage at 14 DAA, 1 g ai ha^−1 mesotrione [11]: 100% | % Damage at 14 DAA, no-mesotrione (AMARE, 250 g/ha): 100% | colby [12]: 0% | % Damage at 14 DAA, 1 g ai ha^−1 mesotrione [12]: 100% | % Damage at 14 DAA, no-mesotrione (AMARE, 500 g/ha): 100% | colby [13]: 7% | % Damage at 14 DAA, 1 g ai ha^−1 mesotrione [13]: 20% | % Damage at 14 DAA, no-mesotrione (ECHCG, 16 g/ha): 13% | colby [14]: −2% | % Damage at 14 DAA, 1 g ai ha^−1 mesotrione [14]: 23% | % Damage at 14 DAA, no-mesotrione (ECHCG, 31 g/ha): 25% | colby [15]: 13% | % Damage at 14 DAA, 1 g ai ha^−1 mesotrione [15]: 53% | % Damage at 14 DAA, no-mesotrione (ECHCG, 63 g/ha): 40% | colby [16]: 5% | % Damage at 14 DAA, 1 g ai ha^−1 mesotrione [16]: 78% | % Damage at 14 DAA, no-mesotrione (ECHCG, 125 g/ha): 73% | colby [17]: −8% | % Damage at 14 DAA, 1 g ai ha^−1 mesotrione [17]: 83% | % Damage at 14 DAA, no-mesotrione (ECHCG, 250 g/ha): 92% | colby [18]: 7% | % Damage at 14 DAA, 1 g ai ha^−1 mesotrione [18]: 95% | % Damage at 14 DAA, no-mesotrione (ECHCG, 500 g/ha): 88% | colby [19]: 0% | % Damage at 14 DAA, 1 g ai ha^−1 mesotrione [19]: 0% | % Damage at 14 DAA, no-mesotrione (IPOHE, 16 g/ha): 0% | colby [20]: 0% | % Damage at 14 DAA, 1 g ai ha^−1 mesotrione [20]: 0% | % Damage at 14 DAA, no-mesotrione (IPOHE, 31 g/ha): 0% | colby [21]: −7% | % Damage at 14 DAA, 1 g ai ha^−1 mesotrione [21]: 8% | % Damage at 14 DAA, no-mesotrione (IPOHE, 63 g/ha): 15% | colby [22]: −10% | % Damage at 14 DAA, 1 g ai ha^−1 mesotrione [22]: 52% | % Damage at 14 DAA, no-mesotrione (IPOHE, 125 g/ha): 62% | colby [23]: −13% | % Damage at 14 DAA, 1 g ai ha^−1 mesotrione [23]: 67% | % Damage at 14 DAA, no-mesotrione (IPOHE, 250 g/ha): 80% | colby [24]: 3% | % Damage at 14 DAA, 1 g ai ha^−1 mesotrione [24]: 87% | % Damage at 14 DAA, no-mesotrione (IPOHE, 500 g/ha): 83% | colby [25]: 10% | % Damage at 14 DAA, 1 g ai ha^−1 mesotrione [25]: 10% | % Damage at 14 DAA, no-mesotrione (SETFA, 16 g/ha): 0% | colby [26]: 7% | % Damage at 14 DAA, 1 g ai ha^−1 mesotrione [26]: 32% | % Damage at 14 DAA, no-mesotrione (SETFA, 31 g/ha): 25% | colby [27]: 8% | % Damage at 14 DAA, 1 g ai ha^−1 mesotrione [27]: 58% | % Damage at 14 DAA, no-mesotrione (SETFA, 63 g/ha): 50% | colby [28]: 2% | % Damage at 14 DAA, 1 g ai ha^−1 mesotrione [28]: 90% | % Damage at 14 DAA, no-mesotrione (SETFA, 125 g/ha): 88% | colby [29]: 0% | % Damage at 14 DAA, 1 g ai ha^−1 mesotrione [29]: 95% | % Damage at 14 DAA, no-mesotrione (SETFA, 250 g/ha): 95% | colby [30]: 2% | % Damage at 14 DAA, 1 g ai ha^−1 mesotrione [30]: 98% | % Damage at 14 DAA, no-mesotrione (SETFA, 500 g/ha): 97% | colby [31]: 30% | % Damage at 14 DAA, 1 g ai ha^−1 mesotrione [31]: 47% | % Damage at 14 DAA, no-mesotrione (SOLNI, 16 g/ha): 0% | colby [32]: 21% | % Damage at 14 DAA, 1 g ai ha^−1 mesotrione [32]: 60% | % Damage at 14 DAA, no-mesotrione (SOLNI, 31 g/ha): 27% | colby [33]: 18% | % Damage at 14 DAA, 1 g ai ha^−1 mesotrione [33]: 75% | % Damage at 14 DAA, no-mesotrione (SOLNI, 63 g/ha): 48% | colby [34]: 3% | % Damage at 14 DAA, 1 g ai ha^−1 mesotrione [34]: 92% | % Damage at 14 DAA, no-mesotrione (SOLNI, 125 g/ha): 87% | colby [35]: 4% | % Damage at 14 DAA, 1 g ai ha^−1 mesotrione [35]: 100% | % Damage at 14 DAA, no-mesotrione (SOLNI, 250 g/ha): 95% | colby [36]: 0% | % Damage at 14 DAA, 1 g ai ha^−1 mesotrione [36]: 100% | % Damage at 14 DAA, no-mesotrione (SOLNI, 500 g/ha): 100%
